# Source: patent US20220308062A1, “METHODS FOR PREDICTING DRUG RESPONSIVENESS IN SAMPLES FROM CANCER SUBJECTS” (Board of Regents, The University of Texas System, priority 2019, published 2022)
# Entries after “also recorded” stand apart in the source; their conditions may differ.
# Columns and labels:
# A549 mouse xenograft = test: Xenograft study of TP-0903 treatment; assay type: in vivo; settings: oral 120 mg/kg twice weekly or 80 mg/kg daily
# Experimental: (§1) Xenograft study of TP-0903 treatment. Mouse xenografts were implanted subcutaneously in the hind flank of the athymic nude mice. Tumor volumes were allowed to grow to a medium size (approximately 100 mm^3) before stratification and initiation of dosing. General health, tumor volumes, and bodyweights were followed over the course of the study.
# as §1, with “grown” for “allowed to grow”, “(˜100” for “(approximately 100”, “dose initiation.” for “initiation of dosing.”
# H226 cells = test: Proliferation assay (IncuCyte ZOOM), H226; assay type: cell-based; settings: Homo sapiens, NCI-H226; H226 squamous cell cancer line; read-out: IC50 from proliferation curves
# Experimental: (§2) Analysis was performed using IncuCyte ZOOM (Essen BioScience) with images acquired every 3 hr for up to 72 hr. Four images (proliferation) and one image (wound healing) were captured per well for each time point. Data were normalized to controls, and values for 50% effective concentration were calculated using Prism V7.0 (GraphPad software, San Diego, Calif.).
# A549 cells = test: RNA-seq of TP-0903-treated A549 cells; assay type: cell-based, human; settings: A549, 40 nmol/L
# Experimental: RNA-seq. Total RNA was extracted from TP-0903-treated and AXL-knockdown A549 cells and from respective controls in two biological replicates by using the PureLink RNA Mini Kit (Thermo Fisher Scientific). Sequencing of cDNAs was performed with Illumina HiSeq3000 as per manufacturer's instructions. Paired-end FASTQ files were generated and aligned with the human reference genome GRCh38 by using STAR alignment software. RSEM was applied to quantify gene expression levels, and fragments per kilobase of transcript per million (FPKM) mapped reads were calculated. The different expression levels of genes were compared between control and treatment groups by using RSEM software. […] Both gene sets were used to perform pathway enrichment analysis on Gene Ontology Consortium (http://geneontology.org/) by using Reactome pathway databases in PANTHER [45, 46]. Significant pathways were further analyzed with gene sets downloaded from the Molecular Signatures Database v6.2 (http://software.broadinstitute.org/gsea/msigdb/). Fold changes of candidate genes were calculated on the basis of log FPKM values and used to generate heat maps.
# RNA-seq. […] The RSEM software was applied to quantify expression levels, and fragments per kilo base of transcript per million (FPKM) mapped reads were calculated. […]
# H2009 cells [1] = test: Atomic force microscopy, H2009; assay type: cell-based, human
# Excerpt: Atomic force microscopy. […] Briefly, live cells cultured were imaged in 60 mm dishes with a Nanoscope Catalyst AFM (Bruker, Billerica, Mass.) mounted on a Nikon Ti inverted epifluorescent microscope. […] To collect the nanomechanical phenotypes of single cells immersed in culture media, 30×30 μm images were captured with a resolution of 256×256 pixels using the PeakForce Quantitative Nanomechanical Mapping (QNM) AFM (Bruker, Billerica, Mass.). For imaging, […]-AIR (Bruker, Billerica, Mass.) probes were applied with the nominal spring constant 0.4 N/m. Following the Sneddon model and the Sokolov's rules, nanomechanical parameters were calculated with Nanoscope Analysis software v.1.7 (Bruker, Billerica, Mass.) using retrace images. Images of at least 15 cells representing each tested case in three biological replicates were collected.
# Atomic force microscopy (AFM). […] Briefly, live cells cultured in 60 mm dishes were imaged with a Nanoscope Catalyst AFM (Bruker) mounted on a Nikon Ti inverted epifluorescent microscope. […] To collect the nanomechanical phenotypes of single cells immersed in culture media, 30×30 μm images were captured with a resolution of 256×256 pixels using the Peak Force Quantitative Nanomechanical Mapping (QNM) AFM (Bruker). For imaging, […]-AIR probes were used with the nominal spring constant 0.4 N/m. Following the Sneddon model and the Sokolov's rules, nanomechanical parameters were calculated with Nanoscope Analysis software v.1.7 using retrace images.
# A549 and H2009 cells = test: Western blot analysis; assay type: cell-based, human; settings: H2009, traditional western blot (FIG. 8C)
# Experimental: Western blot analysis. […] Cell lysates were harvested using RIPA buffer. The concentration of protein lysates was determined by Pierce™ BCA Protein Assay Kit (Thermo fisher). Forty micrograms of the total protein extracts were separated by NuPAGE™ 4-12% Bis-Tris Protein Gels (Thermo fisher) and transferred to PVDF membrane. The membrane was then blocked with 5% of Blotting-Grade Blocker (BioRad) in TBST and probed using primary antibodies including: 1) oncogenic pathways: JAK1, pSTAT3, STAT3, pAKT and pERK1/2 (Cell Signaling Technology; 3344S, 9131S, 9139T, 4060, 4377S); 2) cancer stemness markers: CD133 and ALDH1A1 (Cell Signaling Technology; 64326S and 54135S); and 3) EMT markers: Vimentin (Novus; NBP1-92687), N-cadherin, EpCAM (Abcam; ab71916) and CK8/18 (Novus; NBP2-44930); 4) loading control: GAPDH (Cell Signaling Technology; 2118S). Membrane was incubated in HRP-linked secondary antibodies following dilution with TBST (1:5000) at room temperature for one hour. Blots were developed using Western Lightning Plus-ECL Chemiluminescent Reagents (Perkin Elmer, Waltham, Mass.) and Syngene G:BOX Imaging System.
# H2009 cells [2] = test: Proliferation assay (IncuCyte ZOOM), H2009; assay type: cell-based; settings: Homo sapiens, NCI-H2009; read-out: IC50 from proliferation curves
# Experimental: as §2
# In vitro phenotypic assay. […] Proliferation and migration curves were generated using IncuCyte ZOOM (Essen BioScience) with images acquired every 3 hr over a 72 hr timeframe. Images were captured per well for each time point. Data were normalized to controls, and values for 50% inhibitory concentration were calculated using Prism V8.0 (GraphPad software).
smiles,measurement,setting,value
CN1CCN(Cc2ccc(Nc3ncc(Cl)c(Nc4ccccc4S(=O)(=O)N(C)C)n3)cc2)CC1 [TP-0903],effect on body weight,A549 mouse xenograft,without any adverse effects
same,tumor size / growth,A549 mouse xenograft; 21 days,substantial tumor size regression; also recorded: Growth inhibition was confirmed
same,IC50,H226 cells,12.9 nM
same,IL-11 expression (RNA-seq),A549 cells,down-regulated significantly
same,IL-11 expression (RNA-seq),A549 cells; listed as TP0903,markedly downregulated
same,deformation,H2009 cells [1]; H2009,not significantly affected
same,increase of adhesion,"H2009 cells [1]; H2009, 40 nmol/L, 24 hr",35%
same,increase of stiffness,"H2009 cells [1]; H2009, 40 nmol/L, 24 hr",61%
same,SLUG transcription factor levels,A549 and H2009 cells,significantly decreased
same,IC50,H2009 cells [2],35.5 nM
